Laboratory results as given in patent US5109025A, “Therapeutic agent for penal disorders” (Dainippon Ink and Chemicals, Inc., priority 1988, dated 1992).
Where a name gives a salt, the structure may show the parent alone.

Legend:
mast cells = experiment: Antiallergic activity: inhibition of histamine liberation from mast cells by Compound 48/80; type: cell-based, rat; conditions: for Liberation Ratio of Histamine / inhibition at 30 µM: 0.03 mM, Compound 48/80-induced; for Liberation Ratio of Histamine: control 82.4, blank 3.4; for inhibition at 30 µM: Rattus norvegicus, Mast cell, read-out: Inhibition Ratio (histamine liberation)
Procedure: Locke's solution (10 ml) containing 0.1% by weight of bovine serum albumin was injected into the abdominal cavity of a rat which had been sacrificed by exsanguination. The rat was lightly massaged, then subjected to an abdominal section so that an abdominal solution was collected. The abdominal cavity was also washed with 5 ml of the same solution and the washing solution was collected and mixed with the above abdominal solution. The abdominal solution was centrifuged at 500 rpm for 5 minutes, then 5 ml of cool Locke's solution was added to the sediment. After the sediment had been washed, 3 ml of cool Locke's solution was again added thereto to form a solution of rat peritoneal exudation cells.
Locke's solution (0.5 ml) and 1.0 ml of THC or isoliquiritigenin solution prepared in a concentration of 0.03 mM (THC or isoliquiritigenin was dissolved in a physiological saline solution containing 1% sodium bicarbonate, the resultant solution being diluted with Locke's solution) was added to 0.3 ml of the solution of rat peritoneal exudation cells obtained in (1) above and were incubated at 37° C. for 5 minutes. Then, 0.2 ml each of a Lock's solution of Compound 48/80 (1 mg/100 ml) was added to the solution and the mixture was incubated at 37° C. for 10 minutes. After the reaction was stopped by cooling, the obtained solution was centrifuged at 2,500 rpm for 10 minutes to separate into 1.7 ml of supernatant and 0.3 ml of sediment. Water (0.1 ml) and 0.2 ml of 100% trichloroacetic acid were added to the supernatant, and 1.5 ml of Locke's solution and the 100% trichloroacetic acid were added to the sediment which was then allowed to stand for 30 minutes at room temperature and was centrifuged at 3000 rpm for 15 minutes. A portion (0.35 ml) of each of the supernatant and the supernatant of the sediment was taken and 1.65 ml of water and 0.4 ml of 1N sodium hydroxide were added in turn to each of the supernatants. 0.5% OPT (orthophthalaldehyde) methanol solution (0.1 ml) was added to each of the resultant solutions which were then allowed to react at room temperature for 4 minutes. After the reaction was stopped by the addition of 0.2 ml of 2M citric acid, the fluorescence of each of the reaction solutions was measured by a fluorophotometer.
As a control, Locke's solution was added instead of the solution of THC and, as a blank, the Locke's solution was added instead of THC and Compound 48/80, the other operations being the same as those described above.
The inhibition ratio of THC or isoliquiritigenin for the liberation of histamine by Compound 48/80 is calculated from the following equations: [formula] Ps: Amount of free histamines (in the supernatant) Pr: Amount of remaining histamines (in the sediment) [formula] I: Value of A of THC or isoliquiritigenin C: Value of A of the control
B: Value of A of the blank

[1] = test system: kidney injury induced by cis-platinum; experiment: Cis-platinum-induced kidney injury model test; type: in vivo, ddy male mice; conditions: for Blood Urea Nitrogen: 100 mg/kg/day oral, 5 days before and 5 days after 17 mg/kg s.c. cis-platinum, serum, mice, **: P < 0.01, *: P < 0.05 vs cis-platinum group (114.7 ± 18.4)
Procedure: In this example, tests were conducted to examine the therapeutical activity of THC against kidney injury induced by cis-platinum (cis-DDP) which is an anti-cancer drug and is known to have a very strong effect of inducing functional disorders of the kidney.
A group of ten ddy male mice each weighing from 20 to 25 g were orally administered with 100 mg/kg/day of THC or isoliquiritigenin (positive comparative compound) for 5 continuous days, subcutaneously injected with 17 mg/kg of cis-platinum once on the fifth day, and were treated moreover for 5 continuous days orally administered with THC or isoliquiritigenin in the same manner as above. Thereafter, blood samples were collected, and blood urea nitrogen (BUN) in the serum was measured.
In the test, a group of ten non-treated ddy male mice each weighing from 20 to 25 g were subcutaneously administered once with 17 mg/kg of cis-platinum only. This group was used as control.
For the measurement of blood urea nitrogen, there was used Urea NB-Test Wako (produced by Wako Pure Chemical Industry Co., Ltd.).

[2] = test system: hydrochloric acid-ethanol-induced ulcer; experiment: Antiulcer activity: HCl-ethanol ulcer model test; type: in vivo, SD male rats; conditions: for Inhibition Ratio (ulcer) / Ulcer Index: Dose 100 (unit not given), oral, n = 5 rats; for Ulcer Index: **: P < 0.01 vs control group (46.7 ± 34.6)
Procedure: Antiulcer activity was tested using hydrochloric acid-ethanol-induced ulcer model test which is widely used for evaluating the effectiveness of antiulcer drugs.
A group of five SD male rats each weighing from 200 to 250 g were starved for 24 hours, and then administered orally with 1.0 ml/200 g of 150 mM hydrochloric acid-60% ethanol. After 1 hour, the animals were sacrificed with ether, and the stomach was taken out from each animal. After pouring 10 ml of physiological saline in each of them the stomachs were dipped in 1% formalin solution for 10 minutes to fix them. Each of the stomachs was incised along the greater curvature (curvatura ventriculi major) and the lengths of mucosal ulcers which appeared in the gastric gland portion were measured under microscope (×10). The sum of the lengths per animal was calculated and defined as ulcer index. Test drugs were administered orally in a dose of 1,0 ml/200 g after 10 minutes from the induction of stress. Cetraxate hydrochloride known as antiulcer drug was used as positive comparative compound.

ddy mice = experiment: Toxicity test: minimum lethal dose; type: in vivo; conditions: 5-week old male ddy mice
Procedure: In this example, tests were conducted to confirm the safety of THC, which is the active ingredient of the drug of the present invention.
THC was administered by oral administration or intraperitoneal injection to five 5-week old male ddy mice.

[3] = test system: carragheenin-induced paw edema; experiment: Antiinflammatory activity: carragheenin-induced paw edema; type: in vivo, SD male rat; conditions: 300 mg/kg, oral, 60 minutes before carragheenin; rat
Procedure: The antiinflammatory activity of THC was tested by using carragheenin-induced paw edema method widely used for the evaluation of the effectiveness of general antiinflammatory drugs (NSAID).
A 1%-λ-carragheenin physiological saline solution (0.1 ml) was subcutaneously injected to the right paw of an SD male rat weighing from 200 to 250 g, and the volume of paw was measured after 30, 60, 90, 120, 180 and 300 minutes, respectively. The test drug (THC) had been administered orally in a dosage of 1.0 ml/200 g 60 minutes before the administration of carragheenin. The control group was administered orally with the solvent only in the same dosage. Edema ratio was calculated according to the following equation.
Edema Ratio=[(Ps-P0)/P0 ]×100
where Ps stands for value measured at a point in time after elapse of a predetermined time, and P0 value indicates a value measured at 0 minute after the administration.

[4] = compared with isoliquiritigenin

O=C(/C=C/c1ccc(O)cc1)c1ccc(O)cc1O [isoliquiritigenin, reference compound]
Liberation Ratio of Histamine (mast cells): 71.2%
inhibition at 30 µM (mast cells): 14.2%
Blood Urea Nitrogen [1]: 70.6 ± 14.0

NC[C@H]1CC[C@H](C(=O)Oc2ccc(CCC(=O)O)cc2)CC1 [Cetraxate hydrochloride, reference compound]
Inhibition Ratio (ulcer) [2]: 75.7
Ulcer Index [2]: 11.2 ± 20.0

O=C(/C=C/c1ccc(O)c(O)c1)c1ccc(O)cc1O [THC, 2',3,4,4'-tetrahydroxychalcone]
Liberation Ratio of Histamine (mast cells): 10.4%
inhibition at 30 µM (mast cells): 91.1%
inhibition effect on histamine liberation from rat mast cells caused by Compound 48/80 (in words) (mast cells; [4]): more potent than isoliquiritigenin
Blood Urea Nitrogen [1]: 47.1 ± 12.6
suppression of the increase in blood urea nitrogen due to kidney injury induced by cis-platinum (in words) [1, 4]: more potently than isoliquiritigenin
minimum lethal dose (ddy mice; intraperitoneal injection): not less than 1,000 mg/kg
minimum lethal dose (ddy mice; oral administration): not less than 3,000 mg/kg
inhibitory effect against carragheenin-induced edema [3]: marked inhibitory effect
Inhibition Ratio (ulcer) [2]: 97.3
Ulcer Index [2]: 1.2 ± 2.5
inhibitory activity against hydrochloric acid-ethanol-induced ulcer (in words) ([2]; rat): remarkable inhibitory activity
